Measured values: patent US9051310B2, “Nicotinamide derivative or salt thereof” (FUJIFILM Corporation, priority 2011, dated 2015)
pIC50: −log10 of the molar value.

Assays:
[1] = tested on: THP-1 cells (TNFα secretion on human IgG-coated plate); assay: TNFα generation assay; format: cell-based; conditions: IFN-γ differentiated THP-1 cells, 7 hours, AlphaLISA, read-out: IC50 of TNFα generation inhibitory activity
In short: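 Secreted TNFα was measured by AlphaLISA after 7 h of culture on human IgG-coated wells (coating at 10 μg/ml), with 5×10^4 cells/well. Before plating, the cells had been treated with compound for 30 min at room temperature. The cells were macrophage-like THP-1, produced by a 2-day exposure to 10 ng/ml IFN-γ.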

[2] = biological target: T1, glutathione S-transferase (GST)-linked full-length human Syk protein (Homo sapiens, UniProt P43405); assay: Syk enzyme assay; format: biochemical; conditions: 0.83 nM Syk, time-resolved fluorescence; read-out: IC50 of Syk-inhibitory activity
T1 construct: glutathione S-transferase (GST)-linked full-length human Syk protein; purchased Carna Biosciences; host or cells: Baculovirus expression system
In short: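 Phosphotyrosine on a biotin-peptide substrate (0.5 μM) was read by time-resolved fluorescence at 615 and 665 nm with Eu-anti-pTyr antibody and APC-streptavidin after 1 h EDTA stop.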

| Structure (SMILES) | pIC50 [1] | pIC50 [2] |
| --- | --- | --- |
| CC[C@H](N)[C@@H](C)Nc1nc(Nc2cccc3c2cnn3CCOC)c(C(N)=O)cc1F [Example 2-311, 6-(((2R,3S)-3-aminopentan-2-yl)amino)-5-fluoro-2-((1-(2-methoxyethyl)-1H-indazol-4-yl)amino)nicotinamide] | 6.70 to 6.89 | > 8.00 |
| COCCn1nc(C)c2cc(Nc3nc(N[C@@H]4CCOC[C@@H]4N)c(F)cc3C(N)=O)ccc21 [Example 2-327, 6-(((3R,4R)-3-aminotetrahydro-2H-pyran-4-yl)amino)-5-fluoro-2-((1-(2-methoxyethyl)-3-methyl-1H-indazol-5-yl)amino)nicotinamide] | 6.70 to 6.89 | > 8.00 |
| COCCn1nc(OC)c2cc(Nc3nc(N[C@@H]4CCOC[C@@H]4N)c(F)cc3C(N)=O)ccc21 [Example 2-329, 6-(((3R,4R)-3-aminotetrahydro-2H-pyran-4-yl)amino)-5-fluoro-2-((3-methoxy-1-(2-methoxyethyl)-1H-indazol-5-yl)amino)nicotinamide] | 6.89 to 7.19 | > 8.00 |
| COc1nn(C)c2ncc(Nc3nc(N[C@@H]4CCOC[C@@H]4N)c(F)cc3C(N)=O)cc12 [Example 2-334, 6-(((3R,4R)-3-aminotetrahydro-2H-pyran-4-yl)amino)-5-fluoro-2-((3-methoxy-1-methyl-1H-pyrazolo[3,4-b]pyridin-5-yl)amino)nicotinamide] | 6.70 to 6.89 | > 8.00 |
| CC[C@H](N)[C@H](Nc1nc(Nc2ccc3c(cnn3CC)c2)c(C(N)=O)cc1F)C1CC1 [Example 2-362] | 6.89 to 7.19 | > 8.00 |
| CC[C@H](N)[C@H](Nc1nc(Nc2cncc(-n3cccn3)c2)c(C(N)=O)cc1F)C1CC1 [Example 2-366, 2-((5-(1H-pyrazol-1-yl)pyridin-3-yl)amino)-6-(((1R,2S)-2-amino-1-cyclopropylbutyl)amino)-5-fluoronicotinamide] | 6.70 to 6.89 | 7.30 to 8.00 |
| CCn1ncc2c(Nc3nc(N[C@@H]4CCOC[C@@H]4N)c(F)cc3C(N)=O)cc(F)cc21 [Example 2-370, 6-(((3R,4R)-3-aminotetrahydro-2H-pyran-4-yl)amino)-2-((1-ethyl-6-fluoro-1H-indazol-4-yl)amino)-5-fluoronicotinamide] | 6.70 to 6.89 | > 8.00 |
| CCn1ncc2c(Nc3nc(N[C@H](C4CC4)[C@H](C)N)c(F)cc3C(N)=O)cc(F)cc21 [Example 2-372, 6-(((1R,2S)-2-amino-1-cyclopropylpropyl)amino)-2-((1-ethyl-6-fluoro-1H-indazol-4-yl)amino)-5-fluoronicotinamide] | 6.70 to 6.89 | > 8.00 |
| COCCn1ncc2c(Nc3nc(N[C@@H]4CCCC[C@@H]4N)c(F)cc3C(N)=O)cc(F)cc21 [Example 2-374, 6-(((1R,2S)-2-aminocyclohexyl)amino)-5-fluoro-2-((6-fluoro-1-(2-methoxyethyl)-1H-indazol-4-yl)amino)nicotinamide] | 6.70 to 6.89 | > 8.00 |
| COCCn1ncc2c(Nc3nc(N[C@H](C4CC4)[C@H](C)N)c(F)cc3C(N)=O)cc(F)cc21 [Example 2-377, 6-(((1R,2S)-2-amino-1-cyclopropylpropyl)amino)-5-fluoro-2-((6-fluoro-1-(2-methoxyethyl)-1H-indazol-4-yl)amino)nicotinamide] | 6.89 to 7.19 | > 8.00 |
| CC[C@H](N)[C@@H](C)Nc1nc(Nc2cc(F)cc3c2cnn3CCOC)c(C(N)=O)cc1F [Example 2-378, 6-(((2R,3S)-3-aminopentan-2-yl)amino)-5-fluoro-2-((6-fluoro-1-(2-methoxyethyl)-1H-indazol-4-yl)amino)nicotinamide] | 6.89 to 7.19 | > 8.00 |
| CCn1ncc2cc(Nc3nc(N[C@H](c4ccccn4)[C@H](C)N)c(F)cc3C(N)=O)ccc21 [Example 2-381] | 6.89 to 7.19 | > 8.00 |
| C[C@H](N)[C@H](Nc1nc(Nc2cccc3ncccc23)c(C(N)=O)cc1F)C1CC1 [Example 2-404, 6-(((1R,2S)-2-amino-1-cyclopropylpropyl)amino)-5-fluoro-2-(quinolin-5-ylamino)nicotinamide] | 6.89 to 7.19 | > 8.00 |
| CCn1ncc2cc(Nc3nc(N[C@H](c4ccccc4F)[C@H](C)N)c(F)cc3C(N)=O)ccc21 [Example 2-410, 6-(((1R,2S)-2-amino-1-(2-fluorophenyl)propyl)amino)-2-((1-ethyl-1H-indazol-5-yl)amino)-5-fluoronicotinamide] | 6.89 to 7.19 | > 8.00 |
| CCn1ncc2cc(Nc3nc(N[C@H](c4cccc(F)c4)[C@H](C)N)c(F)cc3C(N)=O)ccc21 [Example 2-413] | 6.89 to 7.19 | > 8.00 |
| COc1cc(Nc2nc(N[C@H](c3cccc(F)c3)[C@H](C)N)c(F)cc2C(N)=O)cc(OC)n1 [Example 2-414] | 6.89 to 7.19 | > 8.00 |

| Structure (SMILES) | pIC50 [1] | pIC50 [2] |
| --- | --- | --- |
| CCn1ncc2cc(Nc3nc(N[C@H](c4cccs4)[C@H](C)N)c(F)cc3C(N)=O)ccc21 [Example 2-416] | > 7.19 | > 8.00 |
| Cn1nc(N2CCCC2)c2cc(Nc3nc(N[C@@H]4CCCC[C@@H]4N)c(F)cc3C(N)=O)ccc21 [Example 2-428, 6-(((1R,2S)-2-aminocyclohexyl)amino)-5-fluoro-2-((1-methyl-3-(pyrrolidin-1-1)-1H-indazol-5-yl)amino)nicotinamide] | 6.70 to 6.89 | 7.30 to 8.00 |
| Cc1cccc(Nc2nc(N[C@@H]3CCCC[C@@H]3N)c(F)cc2C(N)=O)c1 [Example 2-434, 6-(((1R,2S)-2-aminocyclohexyl)amino)-5-fluoro-2-(m-tolylamino)nicotinamide] | 6.89 to 7.19 | > 8.00 |
| Cc1ccc(Nc2nc(N[C@@H]3CCCC[C@@H]3N)c(F)cc2C(N)=O)cc1C [Example 2-436, 6-(((1R,2S)-2-aminocyclohexyl)amino)-2-((3,4-dimethylphenyl)amino)-5-fluoronicotinamide] | 6.70 to 6.89 | > 8.00 |
| NC(=O)c1cc(F)c(N[C@@H]2CCCC[C@@H]2N)nc1Nc1cccc(-n2nccn2)c1 [Example 2-437, 2-((3-(2H-1,2,3-triazol-2-yl)phenyl)amino)-6-(((1R,2S)-2-aminocyclohexyl)amino)-5-fluoronicotinamide] | 6.89 to 7.19 | > 8.00 |
| NC(=O)c1cc(F)c(N[C@@H]2CCCC[C@@H]2N)nc1Nc1cccc(-n2ccnn2)c1 [Example 2-438, 2-((3-(1H-1,2,3-triazol-1-yl)phenyl)amino)-6-(((1R,2S)-2-aminocyclohexyl)amino)-5-fluoronicotinamide] | > 7.19 | > 8.00 |
| NC(=O)c1cc(F)c(N[C@@H]2CCCC[C@@H]2N)nc1Nc1cccc(Cl)c1 [Example 2-439, 6-(((1R,2S)-2-aminocyclohexyl)amino)-2-((3-chlorophenyl)amino)-5-fluoronicotinamide] | 6.89 to 7.19 | > 8.00 |
| NC(=O)c1cc(F)c(N[C@@H]2CCCC[C@@H]2N)nc1Nc1cccc(F)c1 [Example 2-440, 6-(((1R,2S)-2-aminocyclohexyl)amino)-5-fluoro-2-((3-fluorophenyl)amino) nicotinamide] | 6.70 to 6.89 | > 8.00 |
| NC(=O)c1cc(F)c(N[C@@H]2CCCC[C@@H]2N)nc1Nc1ccc(F)cc1 [Example 2-441, 6-(((1R,2S)-2-aminocyclohexyl)amino)-5-fluoro-2-((4-fluorophenyl)amino) nicotinamide] | 6.70 to 6.89 | > 8.00 |
| CC(=O)c1cccc(Nc2nc(N[C@@H]3CCCC[C@@H]3N)c(F)cc2C(N)=O)c1 [Example 2-442, 2-((3-acetylphenyl)amino)-6-(((1R,2S)-2-aminocyclohexyl)amino)-5-fluoronicotinamide] | 6.89 to 7.19 | > 8.00 |
| COCCn1ncc2cc(Nc3nc(N[C@H](c4cccc(F)c4)[C@H](C)N)c(F)cc3C(N)=O)ccc21 [Example 2-454, 6-(((1R,2S)-2-amino-1-(3-fluorophenyl)propyl)amino)-5-fluoro-2-((1-(2-methoxyethyl)-1H-indazol-5-yl)amino)nicotinamide] | 6.89 to 7.19 | > 8.00 |
| Cc1cnn(-c2cncc(Nc3nc(N[C@@H]4CCCC[C@@H]4N)c(F)cc3C(N)=O)c2)c1 [Example 2-472, 6-(((1R,2S)-2-aminocyclohexyl)amino)-5-fluoro-2-((5-(4-methyl-1H-pyrazol-1-yl)pyridin-3-yl)amino)nicotinamide] | > 7.19 | > 8.00 |
| CC[C@@H](Nc1nc(Nc2cccc(C)c2)c(C(N)=O)cc1F)[C@H](C)N [Example 2-474, 6-(((2S,3R)-2-aminopentan-3-yl)amino)-5-fluoro-2-(m-tolylamino)nicotinamide] | 6.70 to 6.89 | > 8.00 |
| CC[C@@H](Nc1nc(Nc2cccc(-n3nccn3)c2)c(C(N)=O)cc1F)[C@H](C)N [Example 2-475, 2-((3-(2H-1,2,3-triazol-2-yl)phenyl)amino)-6-(((2S,3R)-2-aminopentan-3-yl)amino)-5-fluoronicotinamide] | 6.89 to 7.19 | > 8.00 |
| CC[C@@H](Nc1nc(Nc2cccc(-n3ccnn3)c2)c(C(N)=O)cc1F)[C@H](C)N [Example 2-476, 2-((3-(1H-1,2,3-triazol-1-yl)phenyl)amino)-6-(((2S,3R)-2-aminopentan-3-yl)amino)-5-fluoronicotinamide] | 6.89 to 7.19 | > 8.00 |
| CC[C@@H](Nc1nc(Nc2ccc(C)c(C)c2)c(C(N)=O)cc1F)[C@H](C)N [Example 2-477, 6-(((2S,3R)-2-aminopentan-3-yl)amino)-2-((3,4-dimethylphenyl)amino)-5-fluoronicotinamide] | 6.70 to 6.89 | > 8.00 |
